The text below walks through data of patent US20120252721A1 (priority 2011, published 2012).

Where only a bound is given, the exact number is not on record here.

Data set [1] has as its system HCV genotype 1b Con1 strain subgenomic luciferase replicon (Zluc). Put plainly: Luciferase replicon assay, genotype 1b. The format is cell-based. As to conditions: Hepatitis C virus. Put shortly: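 Replicon-bearing Huh-7 cells (1×10^4 H1a-luc or 7.5×10^3 Zluc per well) dosed 3 h after plating with ten 5-fold compound dilutions, 72 h at 37 °C/5% CO2. Luciferase measured by ONE-glo luminescence; EC50 from dose-response fits, replicon-free Huh-7 as negative control.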
In general terms: In antiviral work, replicon cells carry a viral genome segment that copies itself.

Another data set concerns H1a-luc or Zluc cells. Put plainly: in vitro. As to conditions: Table 1B, cellular viability. It counts as cell-based, human. Put shortly: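 Cytotoxicity counter-screen in which the H1a-luc or Zluc cells were compound-treated and viability was read with the CellTiter 96 AQueous One (MTS) reagent by absorbance at 490 nm. CC50 values came from curve fitting.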
In data set [2] the test system is 1a-luc WT (HCV genotype 1a replicon). The experiment in a line: Luciferase replicon transient transfection assay, 1a-luc WT. It counts as cell-based. As to conditions: Hepatitis C virus, 96 h, Huh7.5 cells, 4 days. On the procedure: (§1) The luciferase replicon transient transfection assay measures the ability of a test compound to inhibit the replication of a transiently-transfected HCV luciferase-bearing wild-type or mutant replicon in cured human hepatoma cells (Huh7.5). The inhibition of HCV replication was measured by quantification of luciferase protein expression. This assay has been validated using a panel of genotype 1a and 1b replicons bearing mutations known to be associated with resistance to BMS-790052. Briefly, subconfluent Huh7.5 cells were electroporated with 10 μg of wild-type or mutant luciferase-bearing HCV replicon RNA. The cells were then seeded in 96-well opaque white plates at 3×10^4 cells/well in 150 μL/well and incubated for 4 hrs at 37° C./5% CO2. Ten 1:5 serial dilutions of each test compound were made in media (DMEM containing glucose, L-glutamine and sodium pyruvate, 10% fetal bovine serum, 100 IU/mL penicillin, 100 μg/mL streptomycin, 2 mM GlutaMAX, and 1×MEM non-essential amino acids (Mediatech, Inc. and Invitrogen Corp.)) at concentrations that were 4× higher than the final concentrations to be tested and 50 μL/well was added to the transfected cells. Untreated, mock-transfected cells served as a negative control of luciferase expression. The plates were incubated at 37° C./5% CO2 for 4 days whereupon the media was removed and 50 μL of ONE-glo luciferase substrate (Promega) was added to each well. The plates were agitated on a rotating platform at room temperature for 3 min and read in a Victor^3V microplate reader (Perkin-Elmer) using a 700 nm cut-off filter with a 1 sec read time. EC50 values were calculated from dose response curves from the resulting best-fit equations determined by Microsoft Excel and XLfit 4.1 software.

The subject of data set [3] is 1a-luc Q30E (HCV genotype 1a replicon). Put plainly: Luciferase replicon transient transfection assay, 1a-luc Q30E. It counts as cell-based, hepatitis C virus. The following applies: for EC50: Hepatitis C virus, 96 h, Huh7.5 cells, 4 days. The protocol:
as §1

Data set [4] relates to 1a-luc Q30H (HCV genotype 1a replicon). Put plainly: Luciferase replicon transient transfection assay, 1a-luc Q30H. The format is cell-based, hepatitis C virus. The following applies: for EC50: Hepatitis C virus, 96 h, Huh7.5 cells, 4 days. On the procedure: as §1
Data set [5] concerns 1a-luc L31V (HCV genotype 1a replicon). The experiment in a line: Luciferase replicon transient transfection assay, 1a-luc L31V. It counts as cell-based, hepatitis C virus. The following applies: for EC50: Hepatitis C virus, 96 h, Huh7.5 cells, 4 days. The protocol: as §1
Data set [6] has as its system 1a-luc Y93C (HCV genotype 1a replicon). The experiment in a line: Luciferase replicon transient transfection assay, 1a-luc Y93C. It counts as cell-based, hepatitis C virus. The following applies: for EC50: Hepatitis C virus, 96 h, Huh7.5 cells, 4 days. The protocol:
as §1

The subject of data set [7] is 1a-luc Y93H (HCV genotype 1a replicon). Put plainly: Luciferase replicon transient transfection assay, 1a-luc Y93H. It counts as cell-based, hepatitis C virus. The following applies: for EC50: Hepatitis C virus, 96 h, Huh7.5 cells, 4 days. On the procedure: as §1
For data set [8], the system named is 1a-luc Y93N (HCV genotype 1a replicon). The experiment in a line: Luciferase replicon transient transfection assay, 1a-luc Y93N. It counts as cell-based, hepatitis C virus. The following applies: for EC50: Hepatitis C virus, 96 h, Huh7.5 cells, 4 days. On the procedure: as §1
The subject of data set [9] is ZS11-luc WT (HCV genotype 1b replicon). Put plainly: Luciferase replicon transient transfection assay, ZS11-luc WT. The following applies: for EC50: genotype 1b, ZS11-luc WT, Huh7.5 cells, 4 days; for Ratio: ZS11-luc (Table 1I). It counts as cell-based, hepatitis C virus. The protocol: as §1
Data set [10] has as its system ZS11-luc L31F (HCV genotype 1b replicon). The experiment in a line: Luciferase replicon transient transfection assay, ZS11-luc L31F. The format is cell-based, hepatitis C virus. The following applies: for EC50: Hepatitis C virus, 96 h, Huh7.5 cells, 4 days. On the procedure:
as §1

Data set [11] relates to ZS11-luc L31M (HCV genotype 1b replicon). The experiment in a line: Luciferase replicon transient transfection assay, ZS11-luc L31M. The following applies: for EC50: Hepatitis C virus, 96 h, Huh7.5 cells, 4 days. It counts as cell-based, hepatitis C virus. The protocol: as §1
Data set [12] relates to ZS11-luc Y93C (HCV genotype 1b replicon). The experiment in a line: Luciferase replicon transient transfection assay, ZS11-luc Y93C. The format is cell-based, hepatitis C virus. As to conditions: for EC50: Hepatitis C virus, 96 h, Huh7.5 cells, 4 days. On the procedure: as §1
The subject of data set [13] is ZS11-luc Y93H (HCV genotype 1b replicon). The experiment in a line: Luciferase replicon transient transfection assay, ZS11-luc Y93H. It counts as cell-based, hepatitis C virus. As to conditions: for EC50: Hepatitis C virus, 96 h, Huh7.5 cells, 4 days. On the procedure: as §1
Where [14] appears, read: Hepatitis C virus, Huh7.5, 96 h.

Broadly, the EC50 is the concentration giving half of the maximal effect. Higher therefore signals a need for much substance. Take `COC(=O)N[C@H](C(=O)N1CCC[C@H]1c1ncc(-c2ccc(-c3csc4c(-c5cnc([C@@H]6CCCN6C(=O)[C@@H](NC(=O)OC)C(C)C)[nH]5)csc34)cc2)[nH]1)C(C)C` [Compound A15, [(S)-1-((S)-2-{4-[4-(6-{2-[(S)-1-((S)-2-methoxycarbonylamino-3-methyl-butyryl)-pyrrolidin-2-yl]-3H-imidazol-4-yl}-thieno[3,2-b]thiophen-3-yl)-phenyl]-1H-imidazol-2-yl}-pyrrolidine-1-carbonyl)-2-methyl-propyl]-carbamic acid methyl ester]: the EC50 in data set [1] is less than 0.1 nM.
In general, CC50 refers to the concentration at which the toxic effect on the cells reaches its halfway point. Read a low CC50 as harm at low concentration. As for `COC(=O)N[C@H](C(=O)N1CCC[C@H]1c1ncc(-c2ccc(-c3csc4c(-c5cnc([C@@H]6CCCN6C(=O)[C@H](NC(=O)OC(C)(C)C)c6ccccc6)[nH]5)csc34)cc2)[nH]1)C(C)C` [Compound A111, [(S)-1-((S)-2-{4-[4-(6-{(S)-2-[1-((R)-2-tert-butoxycarbonylamino-2-phenyl-acetyl)-pyrrolidin-2-yl]-3H-imidazol-4-yl}-thieno[3,2-b]thiophen-3-yl)-phenyl]-1H-imidazol-2-yl}-pyrrolidine-1-carbonyl)-2-methyl-propyl]-carbamic acid methyl ester], the EC50 in data set [1] was less than 0.1 nM; in data set [2], 0.04 nM; in data set [3] it was 47 nM; in data set [4] it was 2 nM; in [5], 36 nM; in data set [6] it was 6 nM. Also, the EC50 in data set [7] is more than 198 nM; in data set [8] it was more than 454 nM; in data set [9] (setting [14]) it was 0.002 nM; in data set [10] it was 0.01 nM; in data set [11], 0.01 nM; in data set [12] it was 0.006 nM. The compound also had an EC50 in data set [13] of 0.08 nM. The compound further showed a CC50 in the data set with H1a-luc or Zluc cells of more than 75000 nM. Moreover, the Ratio in data set [3] is recorded as 957; in data set [5], 768; in [6], 146; in [7] it was more than 4859; in data set [8] it was >11,202; in data set [10] it was 8. Besides, the Ratio in [11] is listed as 7; in data set [12] it was 4; in data set [13], 48.
On to `COC(=O)N[C@H](C(=O)N1CCC[C@H]1c1nc2cc(-c3csc4c(-c5ccc(-c6cnc([C@@H]7CCCN7C(=O)[C@H](NC(=O)OC)c7ccccc7)[nH]6)cc5)csc34)ccc2[nH]1)C(C)C` [Compound A169, [(S)-1-((S)-2-{6-[6-(4-{(S)-2-[1-((R)-2-methoxycarbonylamino-2-phenyl-acetyl)-pyrrolidin-2-yl]-3H-imidazol-4-yl}-phenyl)-thieno[3,2-b]thiophen-3-yl]-1H-benzoimidazol-2-yl}-pyrrolidine-1-carbonyl)-2-methyl-propyl]-carbamic acid methyl ester], for which the EC50 in [1] is less than 0.1 nM; in [2], 0.002 nM; in data set [3], 0.9 nM; in data set [4], 0.05 nM; in [5], 0.9 nM; in data set [6], 0.08 nM. Moreover, the EC50 in data set [7] amounted to 9 nM; in data set [8], 30 nM; in data set [9] (setting [14]) it was 0.002 nM; in data set [9], 0.0017 nM; in data set [10], 0.01 nM; in data set [11], 0.009 nM. Moreover, the EC50 in [12] came out at 0.006 nM; in [13], 0.2 nM. The compound further displayed a CC50 with H1a-luc or Zluc cells of more than 75000 nM. Further, the Ratio is 422 in data set [3]; 24 in data set [4]; 425 in data set [5]; 40 in [6]; 4428 in data set [7]; 14,363 in [8]. Besides, the Ratio amounted to 1 in data set [9]; 4 in [10]; 4 in data set [11]; 3 in data set [12]; 82 in data set [13].
With `COC(=O)N[C@H](C(=O)N1CCC[C@H]1c1ncc(-c2ccc(-c3csc4c(-c5ccc6[nH]c([C@@H]7CCCN7C(=O)[C@H](NC(=O)OC)c7ccccc7)nc6c5)csc34)cc2)[nH]1)C(C)C` [Compound A172, [(S)-1-((S)-2-{5-[4-(6-{(S)-2-[1-((R)-2-Methoxycarbonylamino-2-phenyl-acetyl)-pyrrolidin-2-yl]-3H-benzoimidazol-5-yl}-thieno[3,2-b]thiophen-3-yl)-phenyl]-1H-imidazol-2-yl}-pyrrolidine-1-carbonyl)-2-methyl-propyl]-carbamic acid methyl ester], the EC50 in [1] was less than 0.1 nM; in [2], 0.004 nM; in data set [3] it was 2 nM; in [4], 0.08 nM; in data set [5] it was 3 nM; in data set [6], 0.4 nM. The EC50 in data set [7] was 21 nM; in [8] it was 81 nM; in data set [10], 0.02 nM; in [11], 0.01 nM; in data set [12], 0.01 nM; in data set [13], 0.3 nM. The CC50 in the data set on H1a-luc or Zluc cells is more than 75000 nM. Besides, the Ratio in [3] is given as 423; in data set [4] it was 21; in [5] it was 695; in data set [6], 96; in [7] it was 5427; in data set [8], 22,328. The Ratio was 1 in [9]; 4 in [10]; 3 in data set [11]; 2 in data set [12]; 56 in data set [13].
